Read-outs that look alike come from different tables or passages of the source. Where no end group is shown, it is not given here.
What was measured:
[1] = system: C. elegans; experiment: microbe, parasite or virus in culture; conditions: Caenorhabditis elegans
[2] = system: C. elegans
[3] = 0 h, read-out: Percentage of motility inhibition 0 h, Table S2, C. elegans SS assay, 110 μM, 0 h, averages of 4 data points
[4] = 24 h, read-out: Percentage of motility inhibition 24 h, Table S2, C. elegans SS assay, 110 μM, 24 h, averages of 4 data points
[5] = 0 h, read-out: Percentage of motility inhibition 0 h
[6] = 24 h, read-out: Percentage of motility inhibition 24 h
[7] = Table S2, C. elegans SS assay, 110 μM, 0 h, averages of 4 data points
[8] = Table S2, C. elegans SS assay, 110 μM, 24 h, averages of 4 data points

| Molecule | inhibition at 110 µM [1, 3] [%] | inhibition at 110 µM [1, 4] [%] | Percentage of motility inhibition 0 h [2, 7] [%] | Percentage of motility inhibition 24 h [2, 8] [%] | other results |
| --- | --- | --- | --- | --- | --- |
| CC=CC(=O)N(CC)c1ccccc1C (mixture of isomers) [Crotamiton] | 23 | 24 |  |  |  |
| OC[C@H]1O[C@@H](O[C@H]2[C@H](O)[C@@H](O)C(O)O[C@@H]2CO)[C@H](O)[C@@H](O)[C@H]1O (mixture of isomers) [Lactose] |  |  |  |  | inhibition at 110 µM [1, 5]: 54%; inhibition at 110 µM [1, 6]: 10% |
| C=CC(C)(O)CCC=C(C)CCC=C(C)C (mixture of isomers) [Nerolidol] | 7 | 7 |  |  |  |
| COc1ccc([C@@H](O)CNC(=O)/C=C/c2ccccc2)cc1 (racemic) [Aegeline] | 4 | 6 |  |  |  |
| CSCCC(N)C(=O)O (racemic) [DL-Methionine] | 6 | 2 |  |  |  |
| O=c1ncnc2n([C@H]3O[C@@H](CO)[C@H](O)[C@@H]3O)[nH]cc1-2 (stereo in doubt) [Allopurinol riboside] | 0 | 0 |  |  |  |
| COc1cc(OC)cc(OC)c1 [1,3,5‐Trimethoxybenzene] | 1 | 25 |  |  |  |
| CC(C)C12CCC(C)(CC1)O2 [1,4-Cineole] | 21 | 35 |  |  |  |
| CCCCCCCCCCCCCCCCO [1-Hexadecanol] | 17 | 0 |  |  |  |
| OC[C@H]1NC[C@H](O)[C@@H](O)[C@@H]1O [1‐Deoxynojirimycin] | 0 | 1 |  |  |  |
| CCCCCCCCCCCCCCCCCCCCCCO [1‐Docosanol] | 33 | 25 |  |  |  |
| Cc1cncc(C)n1 [2,6‐Dimethylpyrazine] | 0 | 0 |  |  |  |
| CC(=O)c1ccc[nH]1 [2‐Acetylpyrrole] | 26 | 18 |  |  |  |
| O=c1[nH]c2ccccc2o1 [2‐Benzoxazolinone] | 24 | 6 |  |  |  |
| c1ccc2c(Cc3c[nH]c4ccccc34)c[nH]c2c1 [3,3'‐Diindolylmethane] | 0 | 7 |  |  |  |
| Cc1ccc2[nH]c3ccccc3c2c1 [3‐Methylcarbazole] | 0 | 29 |  |  |  |
| COc1c(-c2ccc(O)c(O)c2)oc2cc(O)cc(O)c2c1=O [3‐O‐Methylquercetin] | 3 | 16 |  |  |  |
| O=C(/C=C/c1ccccc1)c1ccc(O)cc1 [4'‐Hydroxychalcone] | 39 | 15 |  |  |  |
| COc1ccc(C(=O)/C=C/c2ccccc2)cc1 [4'‐Methoxychalcone] |  |  |  |  | inhibition at 110 µM [1, 5]: 0%; inhibition at 110 µM [1, 6]: 5% |
| COc1c(OC)c2nccc3c4ccccc4n(c1=O)c23 [4,5‐Dimethoxycanthin‐6‐one] | 0 | 22 |  |  |  |
| Cc1cc(=O)oc2cc(O)ccc12 [4-Methylumbelliferone] | 4 | 3 |  |  |  |

| Molecule | inhibition at 110 µM [1, 3] [%] | inhibition at 110 µM [1, 4] [%] | Percentage of motility inhibition 0 h [2, 7] [%] | Percentage of motility inhibition 24 h [2, 8] [%] | other results |
| --- | --- | --- | --- | --- | --- |
| O=C(/C=C/c1ccc(O)cc1)c1ccccc1 [4‐Hydroxychalcone] | 0 | 1 |  |  |  |
| N[C@@H](Cc1c[nH]c2ccc(O)cc12)C(=O)O [5-Hydroxytryptophan] | 28 | 12 |  |  |  |
| O=c1cc(-c2ccccc2)oc2cccc(O)c12 [5‐Hydroxyflavone] | 12 | 21 |  |  |  |
| Oc1ccc2[nH]ccc2c1 [5‐Hydroxyindole] | 28 | 9 |  |  |  |
| O=c1cc(-c2ccccc2)oc2ccc(O)cc12 [6‐Hydroxyflavone] | 14 | 2 |  |  |  |
| O=c1cc(-c2ccccc2)oc2cc(O)ccc12 [7‐Hydroxyflavone] | 1 | 0 |  |  |  |
| CC(C)=CCc1c(O)c(CC=C(C)C)c2oc3c(O)cccc3c(=O)c2c1O [8‐Deoxygartanin] | 14 | 0 |  |  |  |
| Nc1nc2c(nc(O)n2[C@@H]2O[C@H](CO)[C@@H](O)[C@H]2O)c(=O)[nH]1 [8‐Hydroxyguanosine] | 14 | 4 |  |  |  |
| CC[C@@]1(O)C(=O)OCc2c1cc1n(c2=O)Cc2cc3c(N)cccc3nc2-1 [9‐Aminocamptothecin] | 0 | 2 |  |  |  |
| C=CCCCCCCCCC(=O)O [10‐Undecenoic acid] | 60 | 67 |  |  |  |
| Ginkgolide B |  |  | 4 | 7 |  |
| Ginkgolide C |  |  | 12 | 0 |  |
| Ginkgolide J |  |  | 0 | 25 |  |
| Gypsogenin-3-O-glucuronide |  |  | 50 | 10 |  |
| Handelin |  |  | 0 | 14 |  |
| Harpagide |  |  | 9 | 13 |  |
| Hosenkoside C |  |  | 0 | 5 |  |
| Hyaluronic acid |  |  | 0 | 4 |  |
| Hydrastinine (hydrochloride) |  |  | 7 | 0 |  |
| Hydroxysafflor yellow A |  |  |  |  | Percentage of motility inhibition 0 h ([2]; 110 µM): 36%; Percentage of motility inhibition 24 h ([2]; 110 µM): 12% |
| Ingenol-5,20-acetonide |  |  | 4 | 6 |  |

| Molecule | inhibition at 110 µM [1, 3] [%] | inhibition at 110 µM [1, 4] [%] | Percentage of motility inhibition 0 h [2, 7] [%] | Percentage of motility inhibition 24 h [2, 8] [%] | other results |
| --- | --- | --- | --- | --- | --- |
| Inulin |  |  | 4 | 17 |  |
| Isoliquiritin apioside |  |  | 47 | 8 |  |
| Kansuiphorin C |  |  | 5 | 29 |  |
| Kukoamine B |  |  | 8 | 0 |  |
| Larixyl acetate |  |  | 0 | 44 |  |
| Liensinine (Diperchlorate) |  |  | 0 | 0 |  |
| Liensinine (perchlorate) |  |  | 7 | 0 |  |
| Madecassoside |  |  | 12 | 1 |  |
| Milbemycin [reference compound] |  |  |  |  | Inhibition (%) 110 μM (0 h) [2]: 100 ± 0%; Inhibition (%) 110 μM (24 h) [2]: 86 ± 14% |
| Miquelianin |  |  | 1 | 0 |  |
| Mogroside II-A |  |  | 0 | 14 |  |
| Mogroside IIA1 |  |  | 6 | 47 |  |
| Neoline |  |  | 21 | 1 |  |
| Nordihydrocapsaicin |  |  |  |  | Percentage of motility inhibition 0 h ([2]; 110 µM): 0%; Percentage of motility inhibition 24 h ([2]; 110 µM): 4% |
| Notoginsenoside Fe |  |  | 0 | 0 |  |
| Oxypaeoniflorin |  |  | 0 | 0 |  |
| Penitrem A |  |  | 0 | 14 |  |
| Phillyrin |  |  | 0 | 0 |  |
| Phytol |  |  | 13 | 5 |  |
| Protopine |  |  | 0 | 0 |  |
| Pseudoginsenoside F11 |  |  | 0 | 22 |  |

| Molecule | inhibition at 110 µM [1, 3] [%] | inhibition at 110 µM [1, 4] [%] | Percentage of motility inhibition 0 h [2, 7] [%] | Percentage of motility inhibition 24 h [2, 8] [%] | other results |
| --- | --- | --- | --- | --- | --- |
| RKDVY [Thymopentin (acetate)] |  |  |  |  | Percentage of motility inhibition 0 h ([2]; 0 h, 110 μM): 4%; Percentage of motility inhibition 24 h ([2]; 24 h, 110 µM): 4% |
| RKDVY [Thymopentin] |  |  |  |  | Percentage of motility inhibition 0 h ([2]; 0 h, 110 μM): 36%; Percentage of motility inhibition 24 h ([2]; 24 h, 110 µM): 3% |
| Rebaudioside B |  |  | 6 | 1 |  |
| Rebaudioside C |  |  | 0 | 6 |  |
| Retrorsine |  |  | 28 | 9 |  |
| SN‐38 |  |  | 34 | 3 |  |
| Schaftoside |  |  | 0 | 3 |  |
| Strictosamide |  |  | 0 | 9 |  |
| Tannic acid |  |  | 3 | 15 |  |
| Tarasaponin VI |  |  | 0 | 0 |  |
| Teicoplanin |  |  | 3 | 9 |  |
| Theaflavin 3,3'‐digallate |  |  | 0 | 2 |  |
| Theaflavin‐3'‐gallate |  |  | 9 | 0 |  |
| Trigonelline (chloride) |  |  |  |  | Percentage of motility inhibition 0 h ([2]; 110 µM): 2%; Percentage of motility inhibition 24 h ([2]; 110 µM): 17% |
| Tubeimoside I |  |  | 3 | 0 |  |
| Valepotriate |  |  | 0 | 7 |  |
| Vitamin B12 |  |  | 34 | 0 |  |
| Vitamin K |  |  | 0 | 15 |  |
| Xanthopterin (hydrate) |  |  | 5 | 0 |  |

— article PMC11855827, “High-Throughput Screening of Five Compound Libraries for Anthelmintic Activity and Toxicity Leads to the Discovery of Two Flavonoid Compounds” (International Journal of Molecular Sciences, 2025)
